# Assay results: patent US9687571B2, “Stabilization of radiopharmaceutical compositions using ascorbic acid” (Lantheus Medical Imaging, Inc., priority 2009, dated 2017)
# Columns and labels:
# [1] = Effect of ascorbic acid concentration on radiochemical purity (Example 4); assay type: physicochemical; details: pH 5.8, FIG. 3
# Description: The integrity of a radiopharmaceutical is measured by the radiochemical purity (RCP) of the radiolabeled compound using ITLC or more preferably HPLC. The advantage of using HPLC is that radio-impurities caused by radiolytic degradation can be separated from the radiopharmaceutical under certain chromatographic conditions. […] The radiopharmaceutical compositions of this invention are effective in maintaining the stability of samples for up to ten hours.
# This example describes the effect of ascorbic acid concentration on radiochemical purity. In this example, the radiochemical purity (RCP) of the ^18F-labeled drug product (2-tert-butyl-4-chloro-5-[4-(2-[^18F]fluoro-ethoxymethyl)-benzyloxy]-2H-pyridazin-3-one) was monitored for solutions having an ascorbic acid concentration range from 200 mg/mL (saturation level) to 20 mg/mL, at pH 5.8.
# [2] = Acid/base and solution properties of ascorbic acid; assay type: physicochemical; details: aqueous dose solution, pH 5.8
Compound,radiochemical purity (RCP) level ([1]; ascorbic acid 20 mg/mL),radiochemical purity (RCP) level ([1]; ascorbic acid 200 to 50 mg/mL),saturation level (concentration) [2] [mg/mL]
CC(C)(C)n1ncc(OCc2ccc(COCC[18F])cc2)c(Cl)c1=O [2-tert-butyl-4-chloro-5-[4-(2-[^18F]fluoro-ethoxymethyl)-benzyloxy]-2H-pyridazin-3-one],"increase in impurities (i.e., lower RCP level)",do not significantly change,–
O=C1O[C@H]([C@@H](O)CO)C(O)=C1O [Ascorbic acid],–,–,200
